Experimental data reported in ChEMBL document CHEMBL1127243, “8-chlorodibenz[b,f][1,4]oxazepine-10(11H)-carboxylic acid,2-[3-[2-(furanylmethyl)thio]-1-oxopropyl]hydrazide (SC-51322): A potent PGE2 antagonist and analgesic” (Bioorg Med Chem Lett, 1994).

Assays:
Mus musculus = experiment: Compound was tested for analgesic activity in the mouse writhing assay at intragastric dose of 30 mg/Kg; assay type: functional; settings: po
[1] = Compound was tested for antagonism of Prostaglandin E2 receptor activity in guinea pig ileum assay based on the dose ratio at 3 uM; settings: read-out: pA2 (converted)

| SMILES | ED50 (Mus musculus) | Kb [1] |
| --- | --- | --- |
| O=C(CCS(=O)(=O)Cc1ccco1)NNC(=O)N1Cc2ccccc2Oc2ccc(Cl)cc21 | 5 mg/kg | 251 nM |
| O=C(CCSCc1ccco1)NNC(=O)N1Cc2ccccc2Oc2ccc(Cl)cc21 | 0.9 mg/kg |  |
| O=C(CC[S+]([O-])Cc1ccco1)NNC(=O)N1Cc2ccccc2Oc2ccc(Cl)cc21 (configuration not stated) | 5 mg/kg | 631 nM |
| O=C(CCCCCl)NNC(=O)N1Cc2ccccc2Oc2ccc(Cl)cc21 [PINADOLINE] | 9.8 mg/kg | 631 nM |
